Experimental data from patent US20220184019A1, “Use of chlorogenic acid in preparation of drug for preventing and treating ocular inflammation” (SICHUAN JIUZHANG BIOLOGICAL SCIENCE AND TECHNOLOGY CO., LTD, priority 2017, published 2022).
Entries after “also recorded” stand apart in the source; their conditions may differ. Marks after values point to notes of the source that are not given here.

Columns and labels:
scleritis [1] = experiment: Clinical efficacy on scleritis: inflammation control in one month; type: in vivo, patients; settings: for Cure / Improved / Ineffective / Total effective rate: scleritis patients, n=10 per group, inflammation control in one month
Procedure: (§1) Twenty patients with scleritis were randomly divided into chlorogenic acid test group (10 patients) and control group (10 patients). Patients in chlorogenic acid test group were given chlorogenic acid at a dose of 3 mg/(kg·d) by intramuscular injection. The patients in the control group were given dexamethasone sodium phosphate (5 mg/d) by intravenous injection, and after continuous observation and treatment for 5 days, they initially received oral […] (1 mg/(kg·d)). Both groups were continuously administrated for one month.
(§2) According to the random table, 20 patients with scleritis were randomly divided into two groups, namely chlorogenic acid test group and dexamethasone sodium phosphate control group. Among 10 patients of chlorogenic acid control group, there were one male and 9 females, with an average age of (30.5±5.1) years old and an average course of disease (5.1±0.3). In the dexamethasone sodium phosphate control group, there were one male and 9 females, with an average age of (31.5±4.7) years old and an average course of disease (5.5±0.3). For both groups of patients, there was no statistically significant difference (P>0.05) in the clinical data including age, gender, and disease course, having comparability.
(§3) (1) Inquiring the medical history in detail, performing detailed examinations such as slit lamp examination, fundus examination, ultrasound examination, eye imaging, etc., and making a clear diagnosis of the patient with scleritis; (2) No glucocorticoid and chlorogenic acid contraindications; (3) Patients having non-microbial infectious scleritis; (4) Patients having no obvious abnormalities in blood routine, electrolytes, liver function, kidney function, blood pressure, blood sugar, and so on.
(§4) (1) Patients with microbial infectious scleritis and systemic infectious diseases; (2) Episcleritis; (3) Patients allergic to glucocorticoids or having toxic side effects due to administration of glucocorticoids; (4) Pregnant women and lactating women as well as babies; (5) Patients with moderate hypertension, severe cardiovascular and cerebrovascular diseases, diabetes, as well as liver and kidney function impairment; (6) Patients having poor compliance and refusing regular review and follow-up.
(§5) Patients in chlorogenic acid test group were given chlorogenic acid at a dose of 3 mg/(kg·d) by intramuscular injection. The patients in the control group were given dexamethasone sodium phosphate at 5 mg/day by intravenous infusion, and after continuous observation and treatment for 3 days, they were changed to oral prednison (1 mg/(kg·d)). Both groups were continuously administrated for one month.
(1) Cure: the eye symptoms and signs completely disappeared after treatment; (2) Improved: the eye symptoms and signs improved after treatment; (3) Ineffective: the inflammation was not controlled, or the situation was the same as before treatment.

scleritis [2] = experiment: Clinical efficacy on scleritis: vision recovery in one month (logarithmic visual acuity chart); type: in vivo, patients; settings: for Ineffective / Total effective rate / Improved / Significantly improved vision: scleritis patients, n=10 per group, vision recovery in one month; for Improved: improving 1-2 lines; for Significantly improved vision: improving 3 lines or more
Procedure: as §1, §2, §3, §4, §5
(1) After treatment, the same logarithmic visual acuity chart (the best corrected visual acuity was measured for those with ametropia) was used to detect and record the vision. Significant improvement: improving 3 lines or more; improvement: improving 1-2 lines; ineffective: the vision was not improved or even decreased.

[3] = system: experimental autoimmune uveitis (EAU); experiment: Therapeutic effect on IRBP-induced experimental autoimmune uveitis in rats; slit-lamp ocular inflammation score (Caspi clinical grading); type: in vivo, SD rats; settings: 20 mg/kg intraperitoneal; for Scores of ocular inflammation in rats: EAU SD rats
[4] = 3 mg/(kg·d) intramuscular, one month, vs dexamethasone sodium phosphate control, P<0.05

## C[C@@H]1C[C@H]2[C@@H]3CCC4=CC(=O)C=C[C@]4(C)[C@@]3(F)[C@@H](O)C[C@]2(C)[C@@]1(O)C(=O)COP(=O)(O)O [Control group, dexamethasone sodium phosphate, reference compound]
Scleritis [1]
  Cure: 2 (20%) cases (%)
  Improved: 3 (30%) cases (%)
  Ineffective: 5 (50%) cases (%)
  Total effective rate: 5 (50%) cases (%)
Scleritis [2]
  Ineffective: 4 (40%) case (%)
  Total effective rate: 60 (60%) case (%)
  Improved: 3 (30%) case (%)
  Significantly improved vision: 3 (30%) case (%)

## O=C(/C=C/c1ccc(O)c(O)c1)O[C@@H]1C[C@](O)(C(=O)O)C[C@@H](O)[C@H]1O [Chlorogenic acid]
[3]; vs normal saline control, P<0.05
  Ocular inflammation (score) compared with the control group at the same time point: significantly reduced; also recorded: significantly lower
[3]; day 6 after immunization
  Scores of ocular inflammation in rats: 0.6 ± 0.2
[3]; day 7 after immunization
  Scores of ocular inflammation in rats: 0.6 ± 0.2
[3]; day 8 after immunization
  Scores of ocular inflammation in rats: 0.7 ± 0.4
[3]; day 9 after immunization
  Scores of ocular inflammation in rats: 1.1 ± 0.4
[3]; day 10 after immunization
  Scores of ocular inflammation in rats: 1.3 ± 0.6
[3]; day 11 after immunization
  Scores of ocular inflammation in rats: 1.9 ± 0.6
[3]; day 12 after immunization
  Scores of ocular inflammation in rats: 2.0 ± 0.4
[3]; day 13 after immunization
  Scores of ocular inflammation in rats: 1.3 ± 0.6
[3]; day 14 after immunization
  Scores of ocular inflammation in rats: 1.1 ± 0.3
[3]; day 15 after immunization
  Scores of ocular inflammation in rats: 0.5 ± 0.3
[3]; day 16 after immunization
  Scores of ocular inflammation in rats: 0.4 ± 0.3
[3]; day 17 after immunization
  Scores of ocular inflammation in rats: 0.3 ± 0.1
[3]; day 18 after immunization
  Scores of ocular inflammation in rats: 0.3 ± 0.1
[3]; day 19 after immunization
  Scores of ocular inflammation in rats: 0.3 ± 0.1
[3]; day 20 after immunization
  Scores of ocular inflammation in rats: 0.3 ± 0.1
Scleritis [1]; [4]
  Inflammation control effect versus control group: significantly better than the control group
Scleritis [1]
  Cure: 5 (50%)* cases (%)
  Improved: 3 (30%) cases (%)
  Ineffective: 2 (20%) cases (%)
  Total effective rate: 8 (80%)* cases (%)
Scleritis [2]; [4]
  Vision recovery versus control group: significantly better than the control group
Scleritis [2]
  Ineffective: 1 (10%) case (%)
  Total effective rate: 90 (90%)* case (%)
  Improved: 3 (30%) case (%)
  Significantly improved vision: 6 (60%)* case (%)
